{
  "source": "paper PMC2923493",
  "about": "(Tetrahedron, 2010)",
  "key": {"[1]": {"system": "HT-29 human colon cancer cells", "assay": "Cytotoxicity assay", "assay_type": "cell-based", "conditions": "HT-29 cells, three days"}, "[2]": {"target": "T1, chymotrypsin-like proteasome activity (Homo sapiens, UniProt P28074)", "T1 sequence (P28074 60-263)": "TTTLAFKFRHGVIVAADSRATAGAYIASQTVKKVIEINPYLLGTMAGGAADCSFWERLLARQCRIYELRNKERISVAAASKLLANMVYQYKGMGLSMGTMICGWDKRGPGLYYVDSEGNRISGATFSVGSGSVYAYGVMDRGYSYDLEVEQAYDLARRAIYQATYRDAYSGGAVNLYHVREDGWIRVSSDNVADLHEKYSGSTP", "assay": "Proteasome inhibition assay", "assay_type": "biochemical"}, "[3]": {"system": "human SPC-A1 cell", "conditions": "cited from earlier work"}, "[4]": {"system": "human SPC-A1 cell", "conditions": "cited from earlier work", "remark": "listed apart in the source"}, "[5]": {"system": "LNCaP, HT-29, MCF-7 and MDA-MB 435 human cancer cells", "assay": "In vivo hollow fiber assay", "conditions": "highest dose tested (20 mg/kg), mice, intraperitoneal, all cell lines"}, "[6]": {"conditions": "read-out: Proteasome Inhibition IC50, Suc-LLVY-AMC 10 μM"}},
  "note": "Like-named read-outs stand apart in the source and are kept apart here.",
  "data": [
    {"molecule": "CC1(C)Oc2c(cc3c(=O)c4c(O)cc(O)cc4oc3c2O)[C@H](O)[C@H]1O", "note": "[Compound 2, (3R,4S)-3,4,7,9,12-pentahydroxy-2,2-dimethyl-3,4-dihydropyrano[3,2-b]xanthen-6(2H)-one]", "values": [
      {"measurement": "Cytotoxicity ED50", "setting": "[1]", "result": ">10", "unit": "µM"}
    ]},
    {"molecule": "CO[C@H]1[C@H]2C(=O)c3c(O)c4c(c(CC=C(C)C)c3O[C@@]23[C@@H]2C[C@H]1C(=O)[C@]3(C/C=C(/C)C(=O)O)OC2(C)C)OC(C)(C)C=C4", "note": "[Compound 3, isomoreollic acid]", "values": [
      {"measurement": "Cytotoxicity ED50", "setting": "[1]", "result": 1.9, "unit": "µM"},
      {"measurement": "IC50", "setting": "[2]; [6]", "result": "> 10", "unit": "µM"}
    ]},
    {"molecule": "C=C(C)C(O)Cc1c2c(c(O)c3c1O[C@]14C(=C[C@H]5C[C@@H]1C(C)(C)O[C@@]4(C/C=C(\\C)C(=O)O)C5=O)C3=O)C=CC(C)(C)O2", "note": "(some centres unmarked) [Compound 5, isogaudichaudiic acid E]", "values": [
      {"measurement": "Cytotoxicity ED50", "setting": "[1]", "result": 2.6, "unit": "µM"},
      {"measurement": "IC50", "setting": "[2]; [6]", "result": "> 10", "unit": "µM"}
    ]},
    {"molecule": "CC(C)=CCc1c(O)c(CC=C(C)C)c2c(c1O)C(=O)C1=C[C@H]3C[C@@H]4C(C)(C)O[C@@](C/C=C(/C)C(=O)O)(C3=O)[C@@]14O2", "note": "[Compound 4, isogaudichaudiic acid]", "values": [
      {"measurement": "Cytotoxicity ED50", "setting": "[1]", "result": 3.2, "unit": "µM"},
      {"measurement": "IC50", "setting": "[2]; [6]", "result": "> 10", "unit": "µM"}
    ]},
    {"molecule": "CC(C)=CCC[C@]1(C)C=Cc2c(O)c3c(c(CC=C(C)C)c2O1)O[C@]12C(=C[C@@H]4C[C@H]1C(C)(C)O[C@@]2(C/C=C(/C)C(=O)O)C4=O)C3=O", "note": "[gambogic acid]", "values": [
      {"measurement": "Inhibition of SPC-A1 cell growth in vivo", "setting": "[3]", "result": "inhibited"},
      {"measurement": "Inhibition of SPC-A1 cell growth in vitro", "setting": "[4]", "result": "inhibited"}
    ]},
    {"molecule": "isogaudichaudiic acid B [Compound 7]", "values": [
      {"measurement": "Cytotoxicity ED50", "setting": "[1]", "result": ">10", "unit": "µM"}
    ]},
    {"molecule": "CC(C)=CCc1c2c(c(O)c3c1O[C@]14C(=C[C@@H]5C[C@H]1C(C)(C)O[C@@]4(C/C=C(/C)C(=O)O)C5=O)C3=O)C=CC(C)(C)O2", "note": "[Compound 10, morellic acid]", "values": [
      {"measurement": "Cytotoxicity ED50", "setting": "[1]", "result": 0.36, "unit": "µM"},
      {"measurement": "IC50", "setting": "[2]; [6]", "result": "> 10", "unit": "µM"},
      {"measurement": "Activity in in vivo hollow fiber assay", "setting": "[5]", "result": "inactive"}
    ]},
    {"molecule": "O=C1c2c(O)cc(O)cc2O[C@H](c2ccc(O)cc2)[C@H]1c1c(O)cc(O)c2c(=O)cc(-c3ccc(O)c(O)c3)oc12", "note": "[Compound 8, morelloflavone]", "values": [
      {"measurement": "Cytotoxicity ED50", "setting": "[1]", "result": ">10", "unit": "µM"},
      {"measurement": "IC50", "setting": "[2]", "result": 1.3, "unit": "µM"}
    ]},
    {"molecule": "O=C1c2c(O)cc(O)cc2O[C@@H](c2ccc(O)cc2)[C@@H]1c1c(O)cc(O)c2c(=O)cc(-c3ccc(O)cc3)oc12", "note": "[Compound 9, talbotaflavone]", "values": [
      {"measurement": "IC50", "setting": "[2]; [6]", "result": 4.4, "unit": "µM"}
    ]},
    {"molecule": "CC(C)=CCc1c2c(c(O)c3c1O[C@]14C(=C[C@H]5C[C@@H]1C(C)(C)O[C@@]4(C/C=C(/C)C(=O)O)C5=O)C3=O)CC(O)C(C)(C)O2", "note": "(stereo partly drawn) [Compound 6, (5R,7S,10aS,27S)-11,12-dihydro-12-hydroxymorellic acid]", "values": [
      {"measurement": "Cytotoxicity ED50", "setting": "[1]", "result": 2.9, "unit": "µM"}
    ]}
  ]
}
